Among the data in ChEMBL document CHEMBL1145498, “A systematic interaction map of validated kinase inhibitors with Ser/Thr kinases” (Proc Natl Acad Sci U S A, 2007) are ΔTm values, retold here.

Experiment [1] deals with 5'-AMP-activated protein kinase catalytic subunit alpha-2 (Homo sapiens) (UniProt P54646).
Experiment [2] addresses Calcium/calmodulin-dependent protein kinase type 1D (Homo sapiens) (UniProt Q8IU85).
Experiment [3] has as its target Calcium/calmodulin-dependent protein kinase type 1G (Homo sapiens) (UniProt Q96NX5).
Experiment [4] deals with Calcium/calmodulin-dependent protein kinase type II subunit delta (Homo sapiens) (UniProt Q13557).
Experiment [5] deals with T1, Calcium/calmodulin-dependent protein kinase type IV (Homo sapiens) (UniProt Q16566).
T1 sequence (whole entry): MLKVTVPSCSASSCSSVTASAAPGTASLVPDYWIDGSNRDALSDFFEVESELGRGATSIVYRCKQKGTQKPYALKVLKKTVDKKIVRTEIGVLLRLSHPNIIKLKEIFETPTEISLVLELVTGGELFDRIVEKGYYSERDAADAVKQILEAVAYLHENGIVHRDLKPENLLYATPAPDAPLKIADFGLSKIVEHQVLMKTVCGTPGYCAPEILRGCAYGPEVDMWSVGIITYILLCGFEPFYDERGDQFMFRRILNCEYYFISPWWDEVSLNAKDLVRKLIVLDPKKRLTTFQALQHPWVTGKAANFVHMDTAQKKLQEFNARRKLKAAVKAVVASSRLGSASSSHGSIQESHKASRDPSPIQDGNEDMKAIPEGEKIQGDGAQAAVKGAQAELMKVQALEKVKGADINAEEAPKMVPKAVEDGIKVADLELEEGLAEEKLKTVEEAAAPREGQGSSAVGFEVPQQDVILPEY

The target in experiment [6] is Calcium/calmodulin-dependent protein kinase kinase 2 (Homo sapiens, UniProt Q96RR4).
For experiment [7], the target named is Casein kinase I isoform gamma-3 (Homo sapiens) (UniProt Q9Y6M4).
Chain of Casein kinase I isoform gamma-3 (Homo sapiens) (Q9Y6M4 whole entry, looked up, canonical isoform): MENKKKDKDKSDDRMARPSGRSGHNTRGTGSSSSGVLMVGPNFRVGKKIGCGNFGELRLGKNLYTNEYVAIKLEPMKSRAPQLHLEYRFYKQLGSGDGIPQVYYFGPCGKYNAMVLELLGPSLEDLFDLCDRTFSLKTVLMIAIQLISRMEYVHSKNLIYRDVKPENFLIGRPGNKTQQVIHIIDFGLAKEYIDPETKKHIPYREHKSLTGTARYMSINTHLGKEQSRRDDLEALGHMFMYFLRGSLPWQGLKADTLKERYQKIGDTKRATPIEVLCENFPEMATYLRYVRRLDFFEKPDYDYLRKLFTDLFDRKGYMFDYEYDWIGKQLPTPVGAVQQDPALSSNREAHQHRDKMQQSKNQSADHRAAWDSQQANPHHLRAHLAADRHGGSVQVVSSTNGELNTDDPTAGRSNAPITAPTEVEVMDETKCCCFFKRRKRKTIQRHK
For experiment [8], the target named is Death-associated protein kinase 3 (Homo sapiens) (UniProt O43293).
The target of experiment [9] is Dual specificity mitogen-activated protein kinase kinase 2 (Homo sapiens, UniProt P36507).
Chain of Dual specificity mitogen-activated protein kinase kinase 2 (P36507 whole entry): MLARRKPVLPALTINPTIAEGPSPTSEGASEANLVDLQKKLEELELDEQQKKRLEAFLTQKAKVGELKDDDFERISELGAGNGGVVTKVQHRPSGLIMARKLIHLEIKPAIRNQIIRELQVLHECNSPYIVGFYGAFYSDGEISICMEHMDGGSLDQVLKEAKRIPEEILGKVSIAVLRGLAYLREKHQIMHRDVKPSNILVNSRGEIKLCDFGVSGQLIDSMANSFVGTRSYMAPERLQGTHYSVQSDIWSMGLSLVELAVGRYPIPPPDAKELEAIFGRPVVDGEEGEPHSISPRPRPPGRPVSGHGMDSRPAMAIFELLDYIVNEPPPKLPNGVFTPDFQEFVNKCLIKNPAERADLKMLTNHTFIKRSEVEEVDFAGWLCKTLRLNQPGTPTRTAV
Experiment [10] addresses T2, Dual specificity mitogen-activated protein kinase kinase 6 (Homo sapiens) (UniProt P52564).
T2 sequence (whole entry): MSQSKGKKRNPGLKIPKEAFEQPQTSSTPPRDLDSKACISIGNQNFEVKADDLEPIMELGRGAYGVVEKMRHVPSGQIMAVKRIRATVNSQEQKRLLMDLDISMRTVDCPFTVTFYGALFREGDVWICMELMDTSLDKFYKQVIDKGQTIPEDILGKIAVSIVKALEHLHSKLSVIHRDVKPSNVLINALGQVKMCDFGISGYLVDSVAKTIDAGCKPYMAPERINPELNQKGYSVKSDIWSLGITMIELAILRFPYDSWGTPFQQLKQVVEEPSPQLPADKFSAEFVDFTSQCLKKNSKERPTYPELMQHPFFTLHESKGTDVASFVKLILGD

For experiment [11], the target named is Mitogen-activated protein kinase 3 (Homo sapiens, UniProt P27361).
Chain of Mitogen-activated protein kinase 3 (P27361 whole entry): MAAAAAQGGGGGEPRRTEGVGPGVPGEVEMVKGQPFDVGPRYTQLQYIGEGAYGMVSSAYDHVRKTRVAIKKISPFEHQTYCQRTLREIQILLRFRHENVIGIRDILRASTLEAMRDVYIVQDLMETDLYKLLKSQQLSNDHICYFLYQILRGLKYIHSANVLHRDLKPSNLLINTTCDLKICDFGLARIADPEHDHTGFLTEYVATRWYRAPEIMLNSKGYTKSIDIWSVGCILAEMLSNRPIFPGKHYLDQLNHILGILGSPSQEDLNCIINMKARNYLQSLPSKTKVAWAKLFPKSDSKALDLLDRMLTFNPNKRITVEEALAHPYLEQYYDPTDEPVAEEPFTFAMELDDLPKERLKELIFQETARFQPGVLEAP
Experiment [12] deals with Serine/threonine-protein kinase Nek6 (Homo sapiens) (UniProt Q9HC98).
For experiment [13], the target named is Cyclin-dependent kinase 16 (Homo sapiens) (UniProt Q00536).
Chain of Cyclin-dependent kinase 16 (Homo sapiens) (Q00536 whole entry): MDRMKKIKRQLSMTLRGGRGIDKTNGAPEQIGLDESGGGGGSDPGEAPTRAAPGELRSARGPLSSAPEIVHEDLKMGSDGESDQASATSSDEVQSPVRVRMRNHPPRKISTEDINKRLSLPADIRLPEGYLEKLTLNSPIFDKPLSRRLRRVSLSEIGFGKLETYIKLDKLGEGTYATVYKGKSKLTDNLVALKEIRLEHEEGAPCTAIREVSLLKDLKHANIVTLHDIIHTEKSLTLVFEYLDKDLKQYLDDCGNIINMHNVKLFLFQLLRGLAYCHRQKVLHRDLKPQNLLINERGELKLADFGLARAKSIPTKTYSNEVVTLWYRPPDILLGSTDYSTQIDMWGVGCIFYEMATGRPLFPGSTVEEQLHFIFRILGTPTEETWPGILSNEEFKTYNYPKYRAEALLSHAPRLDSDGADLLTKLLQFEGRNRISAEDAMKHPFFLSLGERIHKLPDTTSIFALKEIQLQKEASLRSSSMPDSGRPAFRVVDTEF
The target in experiment [14] is Serine/threonine-protein kinase PLK1 (Homo sapiens) (UniProt P53350).
Chain of Serine/threonine-protein kinase PLK1 (Homo sapiens) (P53350 whole entry): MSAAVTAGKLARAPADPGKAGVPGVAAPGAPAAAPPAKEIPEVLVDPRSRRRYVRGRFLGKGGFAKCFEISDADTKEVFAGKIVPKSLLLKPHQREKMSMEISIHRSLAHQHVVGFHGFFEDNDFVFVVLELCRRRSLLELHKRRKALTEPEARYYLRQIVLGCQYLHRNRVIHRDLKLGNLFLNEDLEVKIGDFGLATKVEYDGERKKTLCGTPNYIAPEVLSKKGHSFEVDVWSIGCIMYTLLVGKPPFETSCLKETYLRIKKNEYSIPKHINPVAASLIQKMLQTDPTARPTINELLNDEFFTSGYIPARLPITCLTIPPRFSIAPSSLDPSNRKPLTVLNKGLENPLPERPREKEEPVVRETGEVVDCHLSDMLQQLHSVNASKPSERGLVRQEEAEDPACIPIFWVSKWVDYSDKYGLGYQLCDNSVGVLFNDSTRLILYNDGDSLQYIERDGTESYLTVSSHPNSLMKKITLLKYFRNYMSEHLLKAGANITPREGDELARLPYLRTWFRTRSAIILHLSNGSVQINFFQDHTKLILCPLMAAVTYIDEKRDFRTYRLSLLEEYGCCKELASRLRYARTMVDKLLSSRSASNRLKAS
Experiment [15] deals with Serine/threonine-protein kinase RIO2 (Homo sapiens) (UniProt Q9BVS4).
Experiment [16] addresses Ribosomal protein S6 kinase alpha-3 (Homo sapiens) (UniProt P51812).
For experiment [17], the target named is Serine/threonine-protein kinase 38 (Homo sapiens) (UniProt Q15208).
Chain of Serine/threonine-protein kinase 38 (Homo sapiens) (Q15208 2-465 limits assumed): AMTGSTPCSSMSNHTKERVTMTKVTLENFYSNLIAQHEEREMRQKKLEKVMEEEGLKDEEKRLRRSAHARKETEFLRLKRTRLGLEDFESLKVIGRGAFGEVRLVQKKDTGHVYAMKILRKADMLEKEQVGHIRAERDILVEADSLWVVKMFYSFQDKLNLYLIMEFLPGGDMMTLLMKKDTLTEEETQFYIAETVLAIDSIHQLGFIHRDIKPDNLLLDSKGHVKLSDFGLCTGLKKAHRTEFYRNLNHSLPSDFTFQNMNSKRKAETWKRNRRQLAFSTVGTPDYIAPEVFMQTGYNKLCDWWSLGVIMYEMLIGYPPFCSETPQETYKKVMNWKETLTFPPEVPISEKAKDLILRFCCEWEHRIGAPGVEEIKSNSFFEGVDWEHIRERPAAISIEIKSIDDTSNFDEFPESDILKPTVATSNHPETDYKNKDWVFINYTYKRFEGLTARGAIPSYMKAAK
Experiment [18] deals with Serine/threonine-protein kinase 26 (Homo sapiens) (UniProt Q9P289).
In experiment [19] the target is T3, Lymphokine-activated killer T-cell-originated protein kinase (Homo sapiens) (UniProt Q96KB5).
T3 sequence (whole entry): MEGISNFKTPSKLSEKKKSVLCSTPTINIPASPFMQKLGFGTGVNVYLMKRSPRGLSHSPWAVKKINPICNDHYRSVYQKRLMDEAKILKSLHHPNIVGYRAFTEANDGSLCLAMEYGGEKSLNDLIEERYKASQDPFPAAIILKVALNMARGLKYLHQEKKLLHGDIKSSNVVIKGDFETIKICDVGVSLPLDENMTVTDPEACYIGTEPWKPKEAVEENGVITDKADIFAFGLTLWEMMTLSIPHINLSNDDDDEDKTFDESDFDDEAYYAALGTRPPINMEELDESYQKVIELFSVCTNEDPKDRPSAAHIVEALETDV

The target in experiment [20] is T4, Serine/threonine-protein kinase VRK3 (Homo sapiens) (UniProt Q8IV63).
T4 sequence (whole entry): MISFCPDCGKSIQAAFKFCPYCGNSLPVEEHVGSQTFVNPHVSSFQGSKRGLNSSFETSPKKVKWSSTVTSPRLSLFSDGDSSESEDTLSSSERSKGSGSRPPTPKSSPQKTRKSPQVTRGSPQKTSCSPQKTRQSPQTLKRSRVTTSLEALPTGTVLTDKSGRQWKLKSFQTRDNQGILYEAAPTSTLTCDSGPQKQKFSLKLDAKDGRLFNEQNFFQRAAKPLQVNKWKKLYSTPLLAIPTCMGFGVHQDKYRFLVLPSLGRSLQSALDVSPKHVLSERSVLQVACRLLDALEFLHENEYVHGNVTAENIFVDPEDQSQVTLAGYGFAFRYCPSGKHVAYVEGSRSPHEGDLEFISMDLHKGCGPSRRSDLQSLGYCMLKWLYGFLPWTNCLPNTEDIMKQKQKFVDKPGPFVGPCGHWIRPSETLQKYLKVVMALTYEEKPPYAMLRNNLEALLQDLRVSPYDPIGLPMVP

For experiment [21], the target named is Serine/threonine-protein kinase 25 (Homo sapiens) (UniProt O00506).
Chain of Serine/threonine-protein kinase 25 (Homo sapiens) (O00506 whole entry, looked up): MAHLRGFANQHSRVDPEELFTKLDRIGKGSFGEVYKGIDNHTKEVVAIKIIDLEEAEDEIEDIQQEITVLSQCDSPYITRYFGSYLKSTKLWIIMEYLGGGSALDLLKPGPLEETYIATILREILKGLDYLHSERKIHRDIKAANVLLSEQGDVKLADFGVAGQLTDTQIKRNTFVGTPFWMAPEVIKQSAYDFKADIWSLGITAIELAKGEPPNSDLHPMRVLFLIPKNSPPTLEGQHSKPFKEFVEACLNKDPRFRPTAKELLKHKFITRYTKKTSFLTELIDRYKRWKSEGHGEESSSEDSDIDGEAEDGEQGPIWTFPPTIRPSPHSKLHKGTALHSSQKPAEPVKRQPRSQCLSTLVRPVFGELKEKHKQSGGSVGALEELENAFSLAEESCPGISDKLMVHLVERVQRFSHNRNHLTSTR

Chain of Calcium/calmodulin-dependent protein kinase type 1G (Homo sapiens) (Q96NX5 whole entry): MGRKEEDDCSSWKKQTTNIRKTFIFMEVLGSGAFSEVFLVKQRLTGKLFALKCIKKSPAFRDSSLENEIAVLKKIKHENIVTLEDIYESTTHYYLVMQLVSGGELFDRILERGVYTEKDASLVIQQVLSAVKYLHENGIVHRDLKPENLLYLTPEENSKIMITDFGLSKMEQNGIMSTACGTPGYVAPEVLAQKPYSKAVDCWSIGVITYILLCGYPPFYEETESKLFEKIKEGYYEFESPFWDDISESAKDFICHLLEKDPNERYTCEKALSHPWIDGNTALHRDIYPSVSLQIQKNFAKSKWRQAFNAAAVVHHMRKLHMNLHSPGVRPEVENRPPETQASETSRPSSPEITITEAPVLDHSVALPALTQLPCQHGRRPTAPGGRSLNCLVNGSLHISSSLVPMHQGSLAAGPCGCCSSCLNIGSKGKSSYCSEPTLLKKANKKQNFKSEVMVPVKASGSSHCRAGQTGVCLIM
Chain of Calcium/calmodulin-dependent protein kinase type 1D (Homo sapiens) (Q8IU85 whole entry, looked up): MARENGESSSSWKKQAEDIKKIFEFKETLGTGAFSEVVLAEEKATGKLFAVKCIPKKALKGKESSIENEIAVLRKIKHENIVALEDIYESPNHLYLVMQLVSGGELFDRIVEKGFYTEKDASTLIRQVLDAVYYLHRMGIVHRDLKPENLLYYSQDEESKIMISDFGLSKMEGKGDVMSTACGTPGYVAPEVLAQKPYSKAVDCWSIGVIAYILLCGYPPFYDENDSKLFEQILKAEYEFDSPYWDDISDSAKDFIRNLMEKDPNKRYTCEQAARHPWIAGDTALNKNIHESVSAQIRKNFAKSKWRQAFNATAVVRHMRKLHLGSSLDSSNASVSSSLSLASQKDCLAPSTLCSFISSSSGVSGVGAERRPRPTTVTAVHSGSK
Chain of Ribosomal protein S6 kinase alpha-3 (Homo sapiens) (P51812 whole entry): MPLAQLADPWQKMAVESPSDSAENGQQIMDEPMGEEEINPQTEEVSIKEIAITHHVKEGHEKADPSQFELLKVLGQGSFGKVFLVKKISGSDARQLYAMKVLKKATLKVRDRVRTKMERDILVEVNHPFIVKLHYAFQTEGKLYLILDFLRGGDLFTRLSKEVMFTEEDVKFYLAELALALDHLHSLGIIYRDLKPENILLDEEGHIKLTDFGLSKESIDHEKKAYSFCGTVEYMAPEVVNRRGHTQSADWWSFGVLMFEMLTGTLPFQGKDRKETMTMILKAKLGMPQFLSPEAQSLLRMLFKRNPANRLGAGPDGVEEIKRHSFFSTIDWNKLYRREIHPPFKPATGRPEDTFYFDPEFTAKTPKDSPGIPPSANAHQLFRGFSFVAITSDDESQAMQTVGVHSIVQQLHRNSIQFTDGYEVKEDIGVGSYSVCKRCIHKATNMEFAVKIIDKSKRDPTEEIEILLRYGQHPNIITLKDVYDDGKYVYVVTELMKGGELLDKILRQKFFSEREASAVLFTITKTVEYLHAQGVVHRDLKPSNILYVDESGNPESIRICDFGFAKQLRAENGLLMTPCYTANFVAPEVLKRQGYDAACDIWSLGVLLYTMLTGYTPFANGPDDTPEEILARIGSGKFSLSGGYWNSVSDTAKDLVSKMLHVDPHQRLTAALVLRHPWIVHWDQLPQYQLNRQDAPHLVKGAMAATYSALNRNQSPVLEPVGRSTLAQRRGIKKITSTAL

For `NCCNS(=O)(=O)c1cccc2c(Cl)cccc12`, the ΔTm was -0.2 °C in experiment [1]; 0 °C in experiment [2]; 0 °C in [3]; -0.1 °C in experiment [4]; -0.1 °C in [5]; 0.3 °C in [6]. The ΔTm was 0.4 °C in [7]; 3.2 °C in experiment [8]; -0.3 °C in [9]; -0.1 °C in experiment [10]; 0.1 °C in [11]; -0.4 °C in experiment [12]. The ΔTm in experiment [13] is -0.1 °C; in [14], 0.4 °C; in experiment [15], 0.2 °C; in [16], 0.5 °C; in [17], -0.1 °C; in [18], -0.1 °C. The shift in melting temperature (ΔTm) is -0.2 °C in experiment [19], 0.3 °C in experiment [20] and -0.2 °C in experiment [21].
In the case of `Cn1cnc2c(NCc3ccccc3)nc(NCCO)nc21` [OLOMOUCINE], the ΔTm in [1] is 0.2 °C; in experiment [2], -0.1 °C; in experiment [3], 0 °C; in experiment [4] it was -0.2 °C; in [5], 0.1 °C; in [6], -0.2 °C. The ΔTm in experiment [7] was 0 °C; in [8] it was -0.1 °C; in [9] it was -0.4 °C; in [10], 0 °C; in experiment [11] it was 0.2 °C; in [12] it was 0 °C. The ΔTm in [13] was -0.6 °C; in experiment [14], -0.9 °C; in experiment [15] it was 0.3 °C; in [16] it was 0.1 °C; in [17] it was 0 °C; in [18], 0 °C. For the same compound, the ΔTm is 0.4 °C in [19], 0.1 °C in experiment [20] and 0 °C in experiment [21].
On to `C/C(O)=C(\C#N)C(=O)Nc1cc(Br)ccc1Br`, for which the ΔTm was 0.6 °C in [1]; 0.3 °C in experiment [2]; -0.1 °C in experiment [3]; 0.5 °C in [4]; 0.1 °C in experiment [5]; -0.1 °C in [6]. Moreover, the ΔTm in experiment [7] is 0.3 °C; in experiment [8], 0.7 °C; in experiment [9], -0.2 °C; in experiment [10] it was 0.2 °C; in experiment [11] it was 0.3 °C; in [12], -0.2 °C. For the same compound, the shift in melting temperature (ΔTm) was -1.1 °C in experiment [13]; 1.3 °C in [14]; 1.5 °C in experiment [15]; 0.6 °C in experiment [16]; -0.1 °C in experiment [17]; -0.1 °C in [18]. Moreover, the ΔTm in experiment [19] was 0.8 °C; in experiment [20], -0.3 °C; in experiment [21] it was -0.1 °C.
For the compound `C[C@@H]1C[C@H]2O[C@@H]2/C=C\C=C\C(=O)Cc2c(Cl)c(O)cc(O)c2C(=O)O1` [RADICICOL], the ΔTm in experiment [1] is -0.3 °C; in [2], 0 °C; in experiment [3], 0.6 °C; in experiment [4], -0.4 °C; in [5] it was -0.1 °C; in experiment [6], -0.1 °C. In addition, the ΔTm in [7] was 0.1 °C; in [8], -0.3 °C; in experiment [9] it was 0 °C; in [10], 0 °C; in [11], 0 °C; in [12] it was -0.6 °C. Moreover, the ΔTm in experiment [13] was 0.2 °C; in experiment [14] it was 0.2 °C; in experiment [15], -0.5 °C; in experiment [16] it was 0.2 °C; in experiment [17], 0.3 °C; in [18] it was 0.9 °C. The ΔTm is 0.2 °C in experiment [19], -0.4 °C in experiment [20] and -0.6 °C in experiment [21].
Take `CCOC(=O)c1c(C)[nH]c(/C=C2\C(=O)Nc3ccccc32)c1C`: the ΔTm in [1] is 0.5 °C; in experiment [2], 0 °C; in experiment [3], -1.3 °C; in experiment [4], 0.4 °C; in experiment [5], -0.4 °C; in experiment [6] it was 1.4 °C. Besides, the ΔTm is 0.3 °C in [7]; 0 °C in experiment [8]; 0.4 °C in experiment [9]; 0 °C in experiment [10]; -0.4 °C in experiment [11]; 0.1 °C in experiment [12]. In addition, the ΔTm in experiment [13] was -0.2 °C; in experiment [14], -0.6 °C; in experiment [15], -8.9 °C; in experiment [16], 3 °C; in [17], -0.1 °C; in experiment [18], -0.7 °C. Besides, the ΔTm is 0.3 °C in experiment [19], -2.2 °C in [20] and 0.6 °C in [21].
`Nc1n[nH]c2nc3ccccc3nc12` [QUINOXALINE1]: the ΔTm in experiment [1] is -0.1 °C; in experiment [2], 0.2 °C; in experiment [3] it was 0.2 °C; in experiment [4] it was -0.1 °C; in experiment [5], 0.3 °C; in experiment [6] it was 0.2 °C. In addition, the ΔTm was 0.4 °C in experiment [7]; 1 °C in experiment [8]; 0.1 °C in experiment [9]; 0.3 °C in experiment [10]; 0.3 °C in [11]; -0.3 °C in experiment [12]. Also, the ΔTm in experiment [13] is -0.1 °C; in [14], 0.3 °C; in experiment [15] it was 0.4 °C; in experiment [16], 0.4 °C; in experiment [17], 0.4 °C; in experiment [18], 0.7 °C. Also, the ΔTm was 0.5 °C in experiment [19], 0.4 °C in [20] and 1.3 °C in experiment [21].
Take `COc1cc(OC)c(/C=C2\C(=O)Nc3ccccc32)c(OC)c1`: the ΔTm is -0.1 °C in [1]; -0.2 °C in [2]; 0 °C in experiment [3]; -0.3 °C in experiment [4]; -0.1 °C in [5]; 0.4 °C in experiment [6]. The ΔTm in experiment [7] is 0.5 °C; in experiment [8], -0.3 °C; in [9], -0.4 °C; in experiment [10], 0 °C; in experiment [11], 0 °C; in experiment [12] it was 0 °C. Also, the ΔTm in [13] is -0.7 °C; in [14] it was -0.7 °C; in experiment [15] it was -0.2 °C; in experiment [16], -0.2 °C; in experiment [17] it was 0.2 °C; in experiment [18], 0 °C. In addition, the ΔTm in [19] was 0.5 °C; in experiment [20], 0.7 °C; in experiment [21], 0.1 °C.

One may read the ΔTm as the shift of the melting midpoint relative to a reference.
